# How the values were obtained:
# [1] = solubility in D2O; assay type: physicochemical; details: 1 mL D2O at 25° C.
# [2] = system: Pancreas BXPC-3; test: human cancer cell growth inhibition, sulforhodamine B assay; assay type: cell-based; details: 48 hours
# Procedure, shortened: (§1)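 Following the standard NCI SRB assay, cultures were treated for 48 h before trichloracetic acid fixation and dye staining.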
# [3] = system: Lung-NSC NCI-H460; test: as above; assay type: cell-based; details: 48 hours
# Procedure, shortened: as §1
# [4] = system: Colon KM20L2; test: as above; assay type: cell-based; details: 48 hours
# Procedure, shortened: as §1
# [5] = system: Breast MCF-7; test: as above; assay type: cell-based; details: 48 hours
# Procedure, shortened: as §1
# [6] = system: CNS SF268; test: as above; assay type: cell-based; details: 48 hours
# Procedure, shortened: as §1
# [7] = system: Prostate DU-145; test: as above; assay type: cell-based; details: 48 hours
# Procedure, shortened: as §1
# [8] = system: tubulin; details: earlier study, Lin et al. 1988; cited from earlier work
# [9] = earlier study, Lin et al. 1988; cited from earlier work
# [10] = system: purified tubulin; details: earlier study, Lin et al. 1988; cited from earlier work
# [11] = system: Cryptococcus neoformans; details: previously shown, Pettit et al. 2000; cited from earlier work
Compound,Solubility [1],human cancer cell line growth inhibition (GI50) Pancreas BXPC-3 ([2]; Table Ia) [µg/mL],human cancer cell line growth inhibition (GI50) Lung-NSC NCI-H460 ([3]; Table Ia) [µg/mL],human cancer cell line growth inhibition (GI50) Colon KM20L2 ([4]; Table Ia) [µg/mL],human cancer cell line growth inhibition (GI50) Breast MCF-7 ([5]; Table Ia) [µg/mL],human cancer cell line growth inhibition (GI50) CNS SF268 ([6]; Table Ia) [µg/mL],human cancer cell line growth inhibition (GI50) Prostate DU-145 ([7]; Table Ia) [µg/mL],Human cancer cell line inhibition (GI50) Pancreas-a BXPC-3 ([2]; Table I) [µg/mL],Human cancer cell line inhibition (GI50) Lung-NSC NCI-H460 ([3]; Table I) [µg/mL],Human cancer cell line inhibition (GI50) Colon KM20L2 ([4]; Table I) [µg/mL],Human cancer cell line inhibition (GI50) Breast adn MCF-7 ([5]; Table I) [µg/mL],Human cancer cell line inhibition (GI50) CNS SF268 ([6]; Table I) [µg/mL],Human cancer cell line inhibition (GI50) Prostate DU-145 ([7]; Table I) [µg/mL],activity relative to CA4 (1a) as an inhibitor of colchicine binding to tubulin [8],activity relative to CA4 (1a) as an inhibitor of cell growth [9],activity relative to CA4 (1a) as an inhibitor of tubulin assembly [10],inhibition of growth of the pathogenic fungus Cryptococcus neoformans [11]
C1CCNCC1.C1CCNCC1.COc1ccc(/C=C\c2cc(I)c(OC)c(OC)c2)cc1OP(=O)(O)O [O],≧4 mg/mL,0.32,0.0036,0.51,0.0065,0.0044,0.0029,,,,,,,,,,
"combretastatin A-3 [Compound 3a, reference compound]",,,,,,,,2.3,0.19,1.2,0.49,0.0083,0.0043,about one fifth as active,about one seventh as active,about half as active,inhibited growth

# From US20070167412A1, “HALOCOMBSTATINS AND METHODS OF SYNTHESIS THEREOF” (ARIZONA BOARD OF REGENTS, priority 2003, published 2007)
